# Source: publication PMC12069340 (Frontiers in Cellular and Infection Microbiology, 2025)
# Structures can show the parent of a compound that is named as a salt. Where two headings read alike, the source gives them in different places.
# What was measured:
# [1] = tested on: A/PuertoRico/8/1934 (H1N1) virus; assay: microbe, parasite or virus in culture; type: cell-based, influenza A virus
# [2] = in vitro; conditions: human, Relative Viability (%)
# [3] = Validation screen: cytotoxicity without viral infection; conditions: human
# [4] = tested on: A/PuertoRico/8/1934 (H1N1) virus; assay: microbe, parasite or virus in culture; type: cell-based, influenza A virus; remark: listed apart in the source
# [5] = tested on: U937 cells; conditions: 20 µM
# [6] = tested on: U937 cells
# [7] = in vitro; conditions: human
# [8] = tested on: striatal neurons; set-up: method as in Iwatsubo et al., 2007; conditions: young and neonatal neurons; ref Iwatsubo et al., 2007; cited from earlier work
# [9] = in vitro
# [10] = tested on: B/Human/Hubei/1/2007 (IBV); assay: microbe, parasite or virus in culture; type: cell-based; conditions: Influenza B virus, MDCK, 48 h, read-out: IBV IC50
# [11] = tested on: A/Human/Hubei/3/2005 (H3N2); assay: microbe, parasite or virus in culture; type: cell-based; conditions: Influenza A virus, H3N2, A549, 48 h, read-out: H3N2 IC50
# [12] = in vitro; conditions: dog
# [13] = Influenza A virus, H1N1, U-937, 48 h
# [14] = Influenza A virus, H1N1, U-937, 48 h; read-out: NA Inhibition (%)
# [15] = Influenza A virus, H1N1, U-937, 48 h, read-out: NA Inhibition (%)
Molecule,viability at 20 µM [2] [%],Relative Viability (%) [5] [%],NA Inhibition (%) ([4]; 20 µM),further results
CCCN1C[C@H](CSC)C[C@@H]2c3cccc4[nH]cc(c34)C[C@H]21 [Pergolide mesylate],118,–,–,"IC50 [1, 13]: 7.1 µM; CC50 at 48 h ([3]; uninfected U937 cells): > 80 µM; inhibition at 20 µM [4, 14]: 67.8%"
Succinylcholine Chloride Dihydrate,–,99.6,13.3%,–
Ivabradine HCl,–,104.6,-0.1%,–
Varenicline Tartrate,–,108.9,6.8%,–
Ondansetron HCl,–,98.5,4.7%,–
Cc1c(Cl)c(OCC(=O)N2CCN(C)CC2)nc2sc(C(=O)NC3CC3)c(N)c12 [LY2119620],–,99.3,19.0%,–
Meclizine 2HCl,–,109.3,74.9%,IC50 ([1]; read-out: IC50): 5.3 µM; CC50 [6]: 79.5 µM
O=C(C[S+]([O-])Cc1ccco1)NC/C=C\COc1cc(CN2CCCCC2)ccn1 (stereo not shown) [Lafutidine],109,–,–,"IC50 [1, 13]: 14.8 µM; CC50 at 48 h [7]: > 80 µM; inhibition at 20 µM [4, 14]: 52%"
OCc1cc(C(O)CNCCCCCCOCCCCc2ccccc2)ccc1O (stereo not shown) [Salmeterol Xinafoate],90.4,–,–,"IC50 [1, 13]: 4.4 µM; CC50 at 48 h ([3]; uninfected U937 cells): 40.2 µM; inhibition at 20 µM [4, 15]: 69.9%"
Cc1ccc(OCC(O)C(C)NC(C)C)c2c1CCC2 (stereo not shown) [ICI-118551],106,–,–,"IC50 [1, 13]: 5.8 µM; CC50 at 48 h [7]: > 80 µM; inhibition at 20 µM [4, 15]: 60.7%"
CC(C)NCC(O)c1ccc(O)c(O)c1 (stereo not shown) [Isoprenaline HCl],–,–,–,"apoptosis [8]: did not promote apoptosis in either group; inhibition at 20 µM [4, 14]: -12.4%"
CN(C)CCOC(c1ccc(Cl)cc1)c1ccccn1.O=C(O)/C=C\C(=O)O (stereo not shown) [ArbinoxaMine Maleate],–,94.3,29.8%,–
Cc1ccsc1C(=CCCN1CCC[C@@H](C(=O)O)C1)c1sccc1C [Tiagabine hydrochloride],–,–,19.9%,Relative Viability (%) ([5]; human): 91.7%
CN1CCc2cc3c(cc2[C@H]1[C@@H]1OC(=O)c2c1ccc1c2OCO1)OCO3 [(+)-Bicuculline],–,98.1,-11.3%,–
Vortioxetine (Lu AA21004) HBr,–,95.3,23.8%,–
PRX-08066 Maleic acid,–,92.0,20.2%,–
Galanthamine HBr,–,108.7,-13.2%,–
CCCCCCNC(=O)Nc1ccc(S(=O)(=O)Nc2ccc(CCNC[C@H](O)COc3ccc(O)cc3)cc2)cc1 [L755507],–,100.1,-1.1%,–
CN1[C@@H]2CC[C@H]1C[C@@H](OC(c1ccccc1)c1ccccc1)C2 [Benztropine mesylate],108,–,–,"CC50 at 48 h ([3]; uninfected U937 cells): > 80 µM; inhibition at 20 µM [4, 15]: 57.8%"
Naloxone HCl Dihydrate,–,113.1,27.3%,–
Almotriptan Malate,–,114.2,21.0%,–

Molecule,viability at 20 µM [2] [%],Relative Viability (%) [5] [%],NA Inhibition (%) ([4]; 20 µM),further results
Itopride hydrochloride,–,109.7,9.1%,–
Cyclizine 2HCl,–,90.9,-4.6%,–
Cc1cccc(C(C)c2cnc[nH]2)c1C (stereo not shown) [Medetomidine HCl],103,–,–,"IC50 [1, 13]: 12.5 µM; CC50 at 48 h [3]: > 80 µM; inhibition at 20 µM [4, 15]: 59.7%"
Bambuterol HCl,–,102.5,-2.9%,–
Atipamezole hydrochloride,–,119.4,58.1%,–
Urapidil HCl,–,103.3,5.3%,–
CN(C)[C@@H](CCOc1cccc2ccccc12)c1ccccc1 [Dapoxetine HCl],110,–,–,"IC50 [1, 13]: 6.65 µM; CC50 at 48 h ([3]; uninfected U937 cells): 76.1 µM; inhibition at 20 µM [4, 14]: 63.4%"
OC(CNCC(O)C1CCc2cc(F)ccc2O1)C1CCc2cc(F)ccc2O1 (stereo not shown) [Nebivolol],89.4,–,–,"IC50 [1, 13]: 9.8 µM; CC50 at 48 h ([3]; uninfected U937 cells): 33.3 µM; inhibition at 20 µM [4, 14]: 66.4%"
COc1cc([C@@H]2c3cc4c(cc3[C@@H](O[C@@H]3O[C@@H]5CO[C@@H](C)O[C@H]5[C@H](O)[C@H]3O)[C@H]3COC(=O)[C@H]23)OCO4)cc(OC)c1O [etoposide],–,–,–,CC50 [9]: 260 µM
CCCN[C@H]1CCc2nc(N)sc2C1 [Pramipexole],–,–,-25.0,Relative Viability (%) ([5]; human): 91.8
Propranolol HCl,–,–,65.3%,CC50 [6]: > 80 µM
"C=C(CC)C(=O)c1ccc(OCC(=O)O)c(Cl)c1Cl [ethacrynic acid, Ethacrynic acid]",–,–,–,CC50 [9]: 240 µM
Gabapentin HCl,–,111.9,-16.1%,–
Tetrahydrozoline HCl,–,96.0,9.5%,–
Paroxetine HCl,–,85.1,51.2%,–
Hydroxyzine 2HCl,–,101.7,18.4%,–
NCCc1ccc(O)c(O)c1 [Dopamine HCl],–,–,–,"apoptosis [8]: can induce apoptosis in young striatal neurons through D1-like receptors, but not in neonatal neurons; inhibition at 20 µM [4, 15]: -7.6%"
Promethazine HCl,–,105.7,64.8%,IC50 ([1]; read-out: IC50): 9.3 µM; CC50 [6]: > 80 µM
Lorcaserin HCl,–,104.4,17.8%,–
Salbutamol Sulfate,–,114.7,6.4%,–
Naftopidil DiHCl,–,88.1,6.2%,–

Molecule,viability at 20 µM [2] [%],Relative Viability (%) [5] [%],NA Inhibition (%) ([4]; 20 µM),further results
Synephrine HCl,–,99.1,10.3%,–
MetoclopraMide HCl,–,126.3,-36.9%,–
CCCN(CCc1cccs1)[C@H]1CCc2c(O)cccc2C1 [Rotigotine],147,–,–,"IC50 [1, 13]: 1.26 µM; IC50 [10]: 7.3 µM; IC50 [11]: 21.9 µM; CC50 at 48 h [12]: 93 µM; CC50 ([9]; human): 372 µM; inhibition at 20 µM [4, 14]: 89.1%"
CC(C)(C)NCC(O)c1cc(O)cc(O)c1 (stereo not shown) [Terbutaline Sulfate],101,–,–,"inhibition at 20 µM [4, 15]: 39.1%"
NCCc1c[nH]cn1 [Histamine Phosphate],98.9,–,-2.9,–
Cc1ccsc1C(=CCCN1CCC[C@@H](C(=O)O)C1)c1sccc1C [Tiagabine],95.7,–,–,"inhibition at 20 µM [4, 14]: 14.2%"
COc1ccc(C[C@@H]2c3cc(OC)c(OC)cc3CC[N@+]2(C)CCC(=O)OCCCCCOC(=O)CC[N@@+]2(C)CCc3cc(OC)c(OC)cc3[C@H]2Cc2ccc(OC)c(OC)c2)cc1OC [Cisatracurium Besylate],106,–,–,"inhibition at 20 µM [4, 15]: 27.9%"
OC(CCCN1CCCCC1)(c1ccccc1)c1ccccc1 [Diphenidol HCl],125,–,–,"inhibition at 20 µM [4, 14]: 32.3%"
CN1CCCC(n2nc(Cc3ccc(Cl)cc3)c3ccccc3c2=O)CC1 (stereo not shown) [Azelastine HCl],99.4,–,–,"IC50 [1, 13]: 8.4 µM; CC50 at 48 h ([3]; uninfected U937 cells): 55.7 µM; inhibition at 20 µM [4, 14]: 55.3%"
Cc1ccc(N(CC2=NCCN2)c2cccc(O)c2)cc1 [Phentolamine Mesylate],117,–,–,"IC50 [1, 13]: 1 µM; CC50 at 48 h ([3]; uninfected U937 cells): > 80 µM; inhibition at 20 µM [4, 15]: 72.3%"
COc1ccc(C[C@@H](C)NC[C@H](O)c2ccc(O)c(NC=O)c2)cc1.COc1ccc(C[C@@H](C)NC[C@H](O)c2ccc(O)c(NC=O)c2)cc1.O=C(O)/C=C/C(=O)O [Formoterol Hemifumarate],–,121.9,-23.1%,–
COc1cc2nc(N3CCN(C(=O)c4ccco4)CC3)nc(N)c2cc1OC [Prazosin HCl],76.9,–,–,"inhibition at 20 µM [4, 14]: -45.6%"
CCN(C)C(=O)Oc1cccc([C@H](C)N(C)C)c1 [Rivastigmine Tartrate],116,–,–,"inhibition at 20 µM [4, 14]: -0.2%"
CN(C)CC(c1ccc(O)cc1)C1(O)CCCCC1 (stereo not shown) [Desvenlafaxine Succinate],98.8,–,–,"inhibition at 20 µM [4, 14]: 11%"
COc1ccc(C(CN(C)C)C2(O)CCCCC2)cc1 (stereo not shown) [Venlafaxine],93.2,–,–,"inhibition at 20 µM [4, 14]: -1.3%"
C[N+](C)(C)CCCCCC[N+](C)(C)C [Hexamethonium Bromide],104,–,–,"inhibition at 20 µM [4, 14]: -10.2%"
C[C@@H]1C(=O)O[C@H]2C[C@@]34[C@H]5C[C@@H](C(C)(C)C)[C@]36[C@@H](OC(=O)[C@@H]6O)O[C@@]4(C(=O)O5)[C@]21O [Ginkgolide A],109,–,–,"inhibition at 20 µM [4, 14]: 23.3%"
(+)-Matrine,–,109.9,9.9%,–
CN(C)CCc1c[nH]c2ccc(Cn3cncn3)cc12 [Rizatriptan Benzoate],106,–,–,"inhibition at 20 µM [4, 14]: 7.7%"
